Patent EP2970215B1, “PYRROLIDINE DERIVATIVES, PHARMACEUTICAL COMPOSITIONS CONTAINING THEM, AND THEIR USE IN THERAPY” (AbbVie Deutschland GmbH & Co. KG, priority 2013, dated 2014)

target: T1, human GlyT1c transporter (Homo sapiens, UniProt P48067); test: Radioligand binding assay using recombinant CHO cell membranes expressing human GlyT1; conditions: radioligand binding to human GlyT1c transporter-expressing membranes
T1 construct: expressed in transfected cells; host or cells: CHO cells (recombinant; line hGlyT1c_5_CHO is named for the uptake assay)
T1 sequence (P48067 1-706): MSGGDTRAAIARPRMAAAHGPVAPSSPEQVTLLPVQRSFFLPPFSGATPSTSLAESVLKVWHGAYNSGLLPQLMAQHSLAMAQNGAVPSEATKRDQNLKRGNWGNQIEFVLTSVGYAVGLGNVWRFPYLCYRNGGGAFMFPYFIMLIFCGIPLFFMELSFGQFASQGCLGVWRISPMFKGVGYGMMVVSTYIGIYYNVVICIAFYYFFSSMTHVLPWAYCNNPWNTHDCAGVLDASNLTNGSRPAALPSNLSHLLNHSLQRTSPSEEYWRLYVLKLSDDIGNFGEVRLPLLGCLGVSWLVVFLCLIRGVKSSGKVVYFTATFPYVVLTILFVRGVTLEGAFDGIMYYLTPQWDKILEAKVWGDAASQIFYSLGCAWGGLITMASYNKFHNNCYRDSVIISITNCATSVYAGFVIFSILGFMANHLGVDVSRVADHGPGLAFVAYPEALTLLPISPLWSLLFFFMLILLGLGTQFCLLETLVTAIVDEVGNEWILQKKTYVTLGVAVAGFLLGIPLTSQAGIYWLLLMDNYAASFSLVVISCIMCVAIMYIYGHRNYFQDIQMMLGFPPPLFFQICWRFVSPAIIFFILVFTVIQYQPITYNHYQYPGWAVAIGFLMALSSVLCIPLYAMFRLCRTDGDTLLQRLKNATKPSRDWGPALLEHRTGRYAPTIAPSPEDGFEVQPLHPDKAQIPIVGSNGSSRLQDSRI
Excerpt: 2. Radioligand binding assays using recombinant CHO cell membranes expressing human GlyT1: […]

Ki | SMILES
≤ 10 µM | Cn1cnc(S(=O)(=O)N2C[C@@H](Nc3ccccc3F)[C@H](c3ccccc3)C2)c1 (relative stereo) [Example 69, trans-N-(2-fluorophenyl)-1-[(1-methyl-1H-imidazol-4-yl)sulfonyl]-4-phenylpyrrolidin-3-amine]
≤ 1 µM | Cn1cnc(S(=O)(=O)N2C[C@@H](Nc3cccc(F)c3)[C@H](c3ccccc3)C2)c1 (relative stereo) [Example 70, trans-N-(3-fluorophenyl)-1-[(1-methyl-1H-imidazol-4-yl)sulfonyl]-4-phenylpyrrolidin-3-amine]
≤ 10 µM | Cn1cnc(S(=O)(=O)N2C[C@@H](Nc3ccccc3Cl)[C@H](c3ccccc3)C2)c1 (relative stereo) [Example 73, trans-N-(2-chlorophenyl)-1-[(1-methyl-1H-imidazol-4-yl)sulfonyl]-4-phenylpyrrolidin-3-amine]
≤ 0.1 µM | Cn1cnc(S(=O)(=O)N2C[C@@H](Nc3cccc(Cl)c3)[C@H](c3ccccc3)C2)c1 (relative stereo) [Example 74, trans-N-(3-chlorophenyl)-1-[(1-methyl-1H-imidazol-4-yl)sulfonyl]-4-phenylpyrrolidin-3-amine]
≤ 1 µM | Cn1cnc(S(=O)(=O)N2C[C@@H](Nc3ccc(Cl)cc3)[C@H](c3ccccc3)C2)c1 (relative stereo) [Example 75, trans-N-(4-chlorophenyl)-1-[(1-methyl-1H-imidazol-4-yl)sulfonyl]-4-phenylpyrrolidin-3-amine]
≤ 10 µM | Cn1cnc(S(=O)(=O)N2C[C@@H](Nc3cc(C#N)ccc3F)[C@H](c3ccccc3)C2)c1 (relative stereo) [Example 76, 4-fluoro-3-({trans-1-[(1-methyl-1H-imidazol-4-yl)sulfonyl]-4-phenylpyrrolidin-3-yl}amino)benzonitrile]
≤ 1 µM | Cn1cnc(S(=O)(=O)N2C[C@@H](Nc3cc(F)cc(C#N)c3)[C@H](c3ccccc3)C2)c1 (relative stereo) [Example 78, 3-fluoro-5-({trans-1-[(1-methyl-1H-imidazol-4-yl)sulfonyl]-4-phenylpyrrolidin-3-yl}amino)benzonitrile]
≤ 1 µM | Cn1cnc(S(=O)(=O)N2C[C@@H](Nc3ccc(Cl)c(C#N)c3)[C@H](c3ccccc3)C2)c1 (relative stereo) [Example 79, 2-chloro-5-({trans-1-[(1-methyl-1H-imidazol-4-yl)sulfonyl]-4-phenylpyrrolidin-3-yl}amino)benzonitrile]
≤ 1 µM | Cn1cnc(S(=O)(=O)N2C[C@@H](Nc3cc(Cl)cc(C#N)c3)[C@H](c3ccccc3)C2)c1 (relative stereo) [Example 80, 3-chloro-5-({trans-1-[(1-methyl-1H-imidazol-4-yl)sulfonyl]-4-phenylpyrrolidin-3-yl}amino)benzonitrile]
≤ 10 µM | Cn1cnc(S(=O)(=O)N2C[C@@H](Nc3cc(C#N)ccc3Cl)[C@H](c3ccccc3)C2)c1 (relative stereo) [Example 81, 4-chloro-3-({trans-1-[(1-methyl-1H-imidazol-4-yl)sulfonyl]-4-phenylpyrrolidin-3-yl}amino)benzonitrile]
≤ 10 µM | Cc1ccc(C#N)cc1N[C@@H]1CN(S(=O)(=O)c2cn(C)cn2)C[C@H]1c1ccccc1 (relative stereo) [Example 82, 4-methyl-3-({trans-1-[(1-methyl-1H-imidazol-4-yl)sulfonyl]-4-phenylpyrrolidin-3-yl}amino)benzonitrile]
≤ 1 µM | Cc1c(C#N)cccc1N[C@@H]1CN(S(=O)(=O)c2cn(C)cn2)C[C@H]1c1ccccc1 (relative stereo) [Example 83, 2-methyl-3-({trans-1-[(1-methyl-1H-imidazol-4-yl)sulfonyl]-4-phenylpyrrolidin-3-yl}amino)benzonitrile]
≤ 1 µM | Cc1ccccc1N[C@@H]1CN(S(=O)(=O)c2cn(C)cn2)C[C@H]1c1ccc(F)cc1 (relative stereo) [Example 84, trans-4-(4-fluorophenyl)-1-[(1-methyl-1H-imidazol-4-yl)sulfonyl]-N-(2-methylphenyl)pyrrolidin-3-amine]
≤ 0.01 µM | Cc1cccc(N[C@@H]2CN(S(=O)(=O)c3cn(C)cn3)C[C@H]2c2ccc(F)cc2)c1 (relative stereo) [Example 85, trans-4-(4-fluorophenyl)-1-[(1-methyl-1H-imidazol-4-yl)sulfonyl]-N-(3-methylphenyl)pyrrolidin-3-amine]
≤ 1 µM | Cc1ccc(N[C@@H]2CN(S(=O)(=O)c3cn(C)cn3)C[C@H]2c2ccc(F)cc2)cc1 (relative stereo) [Example 86, trans-4-(4-fluorophenyl)-1-[(1-methyl-1H-imidazol-4-yl)sulfonyl]-N-(4-methylphenyl)pyrrolidin-3-amine]
≤ 10 µM | Cn1cnc(S(=O)(=O)N2C[C@@H](Nc3ccccc3C(F)(F)F)[C@H](c3ccc(F)cc3)C2)c1 (relative stereo) [Example 87, trans-4-(4-fluorophenyl)-1-[(1-methyl-1H-imidazol-4-yl)sulfonyl]-N-[2-(trifluoromethyl)phenyl]pyrrolidin-3-amine]
≤ 0.1 µM | Cn1cnc(S(=O)(=O)N2C[C@@H](Nc3ccc(C(F)(F)F)cc3)[C@H](c3ccc(F)cc3)C2)c1 (relative stereo) [Example 89, trans-4-(4-fluorophenyl)-1-[(1-methyl-1H-imidazol-4-yl)sulfonyl]-N-[4-(trifluoromethyl)phenyl]pyrrolidin-3-amine]
≤ 1 µM | Cn1cnc(S(=O)(=O)N2C[C@@H](Nc3ccccc3F)[C@H](c3ccc(F)cc3)C2)c1 (relative stereo) [Example 90, trans-N-(2-fluorophenyl)-4-(4-fluorophenyl)-1-[(1-methyl-1H-imidazol-4-yl)sulfonyl]pyrrolidin-3-amine]
≤ 0.1 µM | Cn1cnc(S(=O)(=O)N2C[C@@H](Nc3cccc(F)c3)[C@H](c3ccc(F)cc3)C2)c1 (relative stereo) [Example 91, trans-N-(3-fluorophenyl)-4-(4-fluorophenyl)-1-[(1-methyl-1H-imidazol-4-yl)sulfonyl]pyrrolidin-3-amine]
≤ 0.1 µM | Cn1cnc(S(=O)(=O)N2C[C@@H](Nc3ccc(F)cc3)[C@H](c3ccc(F)cc3)C2)c1 (relative stereo) [Example 92, trans-N,4-bis(4-fluorophenyl)-1-[(1-methyl-1H-imidazol-4-yl)sulfonyl]pyrrolidin-3-amine]
≤ 1 µM | Cn1cnc(S(=O)(=O)N2C[C@@H](Nc3ccccc3Cl)[C@H](c3ccc(F)cc3)C2)c1 (relative stereo) [Example 93, trans-N-(2-chlorophenyl)-4-(4-fluorophenyl)-1-[(1-methyl-1H-imidazol-4-yl)sulfonyl]pyrrolidin-3-amine]

SMILES | Ki
Cn1cnc(S(=O)(=O)N2C[C@@H](Nc3ccc(F)cc3)[C@H](c3ccccc3)C2)c1 (relative stereo) [Example 71, trans-N-(4-fluorophenyl)-1-[(1-methyl-1H-imidazol-4-yl)sulfonyl]-4-phenylpyrrolidin-3-amine] | ≤ 1 µM
Cn1cnc(S(=O)(=O)N2C[C@@H](Nc3cccc(C#N)c3F)[C@H](c3ccccc3)C2)c1 (relative stereo) [Example 77, 2-fluoro-3-({trans-1-[(1-methyl-1H-imidazol-4-yl)sulfonyl]-4-phenylpyrrolidin-3-yl}amino)benzonitrile] | ≤ 1 µM
